For 26 molecules, IC50 results are on record in US20240391875A1, “ISOQUINOLINONES AND QUINOLINONES AS MODULATORS OF POLRMT” (Pretzel Therapeutics, Inc., priority 2021, published 2024).

The target of this test is POLRMT (Homo sapiens, UniProt O00411). The test is described as follows: homogeneous TR-FRET assay of mitochondrial transcription (inhibition of POLRMT). The test is classed as biochemical. As for the experimental part:
The inhibitory activity of the compounds of the present invention against POLRMT were determined by assays based on Bergbrede, T., et al., “An adaptable high-throughput technology enabling the identification of specific transcription modulators,” SLAC Discov., 22, 378-386 (2017).
The ability of some compounds of the present invention to inhibit POLRMT were determined in a homogeneous TR-FRET Assay using high-throughput screening in a 384-well plate format. This method is used to monitor the activity of mitochondrial transcription through measurement of its product, a 407 bp long RNA transcript. Detection of the product is facilitated by hybridization of two DNA-oligonucleotide probes to specific and adjacent sequences within the RNA product sequence. Upon annealing of the probes, two fluorophores are coupled directly to an acceptor nucleotide probe (ATTO647, 5′), or introduced via a coupled streptavidin with a biotinylated donor nucleotide probe (Europium cryptate) that is brought into sufficient proximity to serve as a fluorescence-donor-acceptor pair. Thus, a FRET signal at 665 nm is generated upon excitation at 340 nm.
Proteins used as transcription factors (POLRMT: NP_005026.3, TFAM: NP_003192.1, TFB2M: NP_071761.1) are diluted from their stocks to working concentrations of 1 μM, 20 μM and 4 μM respectively, in a dilution buffer containing 20 mM Tris-HCl (pH 8.0), 200 mM NaCl, 10% (v/v) glycerol, 1 mM Dithiothreitol (DTT), 0.5 mM EDTA.
DNA template is a pUC18 plasmid with the mitochondrial light strand promotor sequence (1-477) cloned between HindIII and BamHI sites. The DNA template is restriction linearized proximal to the promotor 3′-end (pUC-LSP).
The reaction mixture (10 uL) containing 7.5 nM POLRMT, 15 nM of TFB2M, 30 nM of TFAM, 0.5 nM of DNA template and 500 μM nucleotide triphosphate mix (NTPs) in a reaction buffer (containing 10 mM Tris-HCl (pH 7.5), 10 mM MgCl2, 40 mM NaCl, 10 mM DTT, 0.005% (w/v) Tween-20, 160 units/ml Rnase inhibitor and 0.1 mg/mL BSA) are dispensed to compounds in microplates, using a Thermo Multidrop® dispenser, and incubated at 37° C. in a VWR INCU-Line incubator for 60 minutes after mixing. No nucleotide triphosphate mix is added to negative control samples. Microplates with compounds to be tested in the assay are prepared from 10 mM compound stocks in 100% DMSO, equal amounts of DMSO without any compound are added to positive control and negative control samples.
During the incubation, a mix of the detection reagents is prepared in a buffer such that the enzymatic reaction is terminated due to chelating of Mg-ions and increased ionic strength, containing 50 mM Tris-HCl (pH 7.5), 700 mM NaCl, 20 mM EDTA, and 0.010% (w/v) Tween-20. Europium-streptavidin is pre-incubated with a 200-fold molar excess of a random sequence oligonucleotide to block unspecific binding of oligo, for two hours at ambient temperature in the dark. Afterwards, the blocked Europium-streptavidin is kept on ice until use.
At the end of the enzymatic reaction time, 5 μL detection oligo mix in the detection buffer is added, and assay plates are mixed and kept at ambient temperature for one hour, protected from light. The concentration of the Acceptor nucleotide oligo (e.g., ATTO647N-5′-[…]-3′) and Donor nucleotide oligo (e.g., bio-5′-AACACATCTCT(-bio)GCCAAACCCCA-bio-3′) in each assay well is 1 nM, and 3 nM, respectively.
After incubation with oligo mix, 5 μL of pre-blocked Europium-streptavidin reagent is dispensed to each assay well, assay plates are again mixed and kept at ambient temperature for one hour, protected from light.
The generated signal is measured with BMG Pherastar microtiter plate reader with a TRF light unit, using excitation at 340 nm, an integration time of 200 μs, and a delay time of 100 μs, before detection at 620 nm and 665 nm. The ratio of donor- and acceptor-fluorescence is used as a measure of the generated transcript product (i.e. enzymatic activity).
(In general: TR-FRET usually uses a lanthanide donor and a delayed reading to cut background.)

[1] abbreviates: isoquinolinone compounds (Table 1).
Setting [2] is: quinolinone compounds (Table 2).

Chain of POLRMT (O00411 42-1230): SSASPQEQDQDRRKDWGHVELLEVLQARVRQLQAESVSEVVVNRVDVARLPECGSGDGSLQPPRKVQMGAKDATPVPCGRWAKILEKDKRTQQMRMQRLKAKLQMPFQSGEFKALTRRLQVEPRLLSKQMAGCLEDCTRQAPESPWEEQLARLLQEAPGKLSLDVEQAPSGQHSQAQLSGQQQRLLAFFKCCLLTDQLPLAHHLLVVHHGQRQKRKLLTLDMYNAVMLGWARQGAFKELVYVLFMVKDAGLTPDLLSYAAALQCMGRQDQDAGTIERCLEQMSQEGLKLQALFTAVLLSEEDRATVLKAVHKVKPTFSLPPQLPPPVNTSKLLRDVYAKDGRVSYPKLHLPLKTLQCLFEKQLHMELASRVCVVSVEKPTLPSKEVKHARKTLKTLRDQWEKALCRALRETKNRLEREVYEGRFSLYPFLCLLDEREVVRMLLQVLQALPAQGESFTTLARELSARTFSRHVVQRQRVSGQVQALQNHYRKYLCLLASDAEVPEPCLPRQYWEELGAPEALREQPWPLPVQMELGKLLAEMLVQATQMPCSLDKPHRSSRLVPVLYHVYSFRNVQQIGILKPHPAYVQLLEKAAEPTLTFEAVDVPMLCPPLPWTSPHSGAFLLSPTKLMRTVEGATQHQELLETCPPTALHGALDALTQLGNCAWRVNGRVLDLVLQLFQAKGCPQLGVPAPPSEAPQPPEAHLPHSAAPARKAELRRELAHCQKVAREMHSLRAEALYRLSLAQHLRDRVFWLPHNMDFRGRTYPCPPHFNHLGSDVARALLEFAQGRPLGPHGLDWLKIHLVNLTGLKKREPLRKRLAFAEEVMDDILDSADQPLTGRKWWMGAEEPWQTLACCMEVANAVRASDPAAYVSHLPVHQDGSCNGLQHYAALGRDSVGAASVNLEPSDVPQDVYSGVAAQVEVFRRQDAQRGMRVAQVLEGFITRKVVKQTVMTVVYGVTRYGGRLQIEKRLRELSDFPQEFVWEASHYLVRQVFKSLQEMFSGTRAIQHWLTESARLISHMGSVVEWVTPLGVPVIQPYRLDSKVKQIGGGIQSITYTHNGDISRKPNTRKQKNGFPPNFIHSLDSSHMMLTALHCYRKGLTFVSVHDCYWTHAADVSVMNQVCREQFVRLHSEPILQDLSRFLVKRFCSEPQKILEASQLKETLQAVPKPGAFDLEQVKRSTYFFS

The IC50 is the point on the concentration scale where inhibition reaches its midpoint. In turn, `C[C@@H](Oc1ccc2c(-c3ccc(F)cc3Cl)c[nH]c(=O)c2c1)C(=O)N1C2CCC1COC2` [Example 92, 7-(((2R)-1-(3-oxa-8-azabicyclo[3.2.1]octan-8-yl)-1-oxopropan-2-yl)oxy)-4-(2-chloro-4-fluorophenyl)isoquinolin-1(2H)-one] showed an IC50 under setting [1] of 80 nM. On the same count and under the same terms, the same measure for `Cc1cc(F)cc(C)c1-c1c[nH]c(=O)c2cc(OCC(=O)O)ccc12` [Example 110, 2-((4-(4-fluoro-2,6-dimethylphenyl)-1-oxo-1,2-dihydroisoquinolin-7-yl)oxy)acetic acid]: 25000 nM. The molecule `C[C@@H](Oc1ccc2c(-c3ccc(F)cc3Cl)c[nH]c(=O)c2c1)C(=O)N1CCOC[C@H]1CO` [Example 113, 4-(2-chloro-4-fluorophenyl)-7-(((R)-1-((R)-3-(hydroxymethyl)morpholino)-1-oxopropan-2-yl)oxy)isoquinolin-1(2H)-one] gave a concentration for half-maximal inhibition (IC50) under setting [1] of 600 nM. This IC50 is about 42-fold lower than that of the molecule before. On the same count and under the same terms, the same measure for `C[C@@H](Oc1ccc2c(-c3ccc(F)cc3Cl)c[nH]c(=O)c2c1)C(=O)N1CC2CCC(C1)O2` [Example 105, 7-(((2R)-1-(8-oxa-3-azabicyclo[3.2.1]octan-3-yl)-1-oxopropan-2-yl)oxy)-4-(2-chloro-4-fluorophenyl)isoquinolin-1(2H)-one]: 200 nM. On the same count and under the same terms, the same measure for `C[C@@H](Oc1ccc2c(-c3ccc(F)cc3Cl)c[nH]c(=O)c2c1)C(=O)N1CCS(=N)(=O)CC1` [Example 139, (R)-4-(2-chloro-4-fluorophenyl)-7-((1-(1-imino-1-oxido-1λ^6-thiomorpholino)-1-oxopropan-2-yl)oxy)isoquinolin-1(2H)-one]: 2000 nM; for `Cc1ccccc1-c1c[nH]c(=O)c2cc(O[C@H](C)C(=O)O)ccc12` [Example 88, (R)-2-((1-oxo-4-(o-tolyl)-1,2-dihydroisoquinolin-7-yl)oxy)propanoic acid]: 400 nM.

For the molecule `COCC(=O)Nc1ccc2c(-c3ccccc3C)c[nH]c(=O)c2c1` [Example 32, 2-methoxy-N-(1-oxo-4-(o-tolyl)-1,2-dihydroisoquinolin-7-yl)acetamide], under setting [1], the IC50 turned out to be 22000 nM. The same measure, in the same setting: as for `COC[C@H]1COCCN1C(=O)[C@@H](C)Oc1ccc2c(-c3ccc(F)cc3Cl)c[nH]c(=O)c2c1` [Example 103, 4-(2-chloro-4-fluorophenyl)-7-(((R)-1-((S)-3-(methoxymethyl)morpholino)-1-oxopropan-2-yl)oxy)isoquinolin-1(2H)-one], the figure is 700 nM; as for `Cc1ccccc1-c1c[nH]c(=O)c2cc(OC(C)C#N)ccc12` (single isomer, unassigned) [Example 13, 2-((1-oxo-4-(o-tolyl)-1,2-dihydroisoquinolin-7-yl)oxy)propanenitrile], 900 nM. In the case of `Cc1ccccc1-c1cc(=O)[nH]c2cc(O[C@H](C)C(=O)N(C)C)ccc12` (single isomer, unassigned) [Example Q7], it took 9000 nM to reach half-maximal inhibition under setting [2] (IC50). Take `C[C@@H](Oc1ccc2c(-c3ccc(F)cc3Cl)c[nH]c(=O)c2c1)C(=O)N1CCC[C@H](C#N)C1` [Example 87, (S)-1-((R)-2-((4-(2-chloro-4-fluorophenyl)-1-oxo-1,2-dihydroisoquinolin-7-yl)oxy)propanoyl)piperidine-3-carbonitrile]: under setting [1], the midpoint of inhibition, the IC50, lay at 200 nM.

In the case of `CC(C#N)Oc1ccc2c(-c3ccc(F)cc3Cl)c[nH]c(=O)c2c1` (single isomer, unassigned) [Example 50, 2-((4-(2-chloro-4-fluorophenyl)-1-oxo-1,2-dihydroisoquinolin-7-yl)oxy)propanenitrile], the IC50 under setting [1] was determined as 600 nM. Under setting [1], `CCc1ccccc1-c1c[nH]c(=O)c2cc(OCC#N)ccc12` [Example 137, 2-((4-(2-ethylphenyl)-1-oxo-1,2-dihydroisoquinolin-7-yl)oxy)acetonitrile] had a concentration for half-maximal inhibition (IC50) of 300 nM. As to `C[C@@H](Oc1ccc2c(-c3ccc(F)cc3Cl)c[nH]c(=O)c2c1)C(=O)N1CCN(CC(F)(F)F)CC1` [Example 118, (R)-4-(2-chloro-4-fluorophenyl)-7-((1-oxo-1-(4-(2,2,2-trifluoroethyl)piperazin-1-yl)propan-2-yl)oxy)isoquinolin-1(2H)-one], the concentration for half-maximal inhibition (IC50) under setting [1] was 400 nM.

As to `Cc1ccccc1-c1c[nH]c(=O)c2cc(OC(C)C#N)ccc12` (single isomer, unassigned) [Example 12, 2-((1-oxo-4-(o-tolyl)-1,2-dihydroisoquinolin-7-yl)oxy)propanenitrile], it took 200 nM to reach half-maximal inhibition under setting [1] (IC50). On the same count and under the same terms, the same measure for `Cc1ccccc1-c1c[nH]c(=O)c2cc(CC(C)C(=O)N3CCCCC3)ccc12` (centres unmarked) [Example 41, 7-(2-methyl-3-oxo-3-(piperidin-1-yl)propyl)-4-(o-tolyl)isoquinolin-1(2H)-one]: 1000 nM; for `Cc1ccccc1-c1c[nH]c(=O)c2cc(OC(C)(C)C(=O)O)ccc12` [Example 119, 2-methyl-2-((1-oxo-4-(o-tolyl)-1,2-dihydroisoquinolin-7-yl)oxy)propanoic acid]: 700 nM.

`Cc1ccccc1-c1c[nH]c(=O)c2cc(NC(C)C(N)=O)ccc12` (centres unmarked) [Example 69] came in with an IC50 under setting [1] of 12000 nM.

For `CC(=O)N1CC[C@@H](Oc2ccc3c(-c4ccccc4C)c[nH]c(=O)c3c2)C1` [Example 16, (R)-7-((1-acetylpyrrolidin-3-yl)oxy)-4-(o-tolyl)isoquinolin-1(2H)-one], inhibition under setting [1] was half-maximal at 51000 nM (IC50). The same measure, in the same setting: as for `C[C@@H](Oc1ccc2c(-c3ccc(F)cc3Cl)c[nH]c(=O)c2c1)C(=O)N1CCOCC1(C)C` [Example 107, (R)-4-(2-chloro-4-fluorophenyl)-7-((1-(3,3-dimethylmorpholino)-1-oxopropan-2-yl)oxy)isoquinolin-1(2H)-one], the figure is 200 nM. In the case of `C[C@@H](Oc1ccc2c(-c3ccc(F)cc3Cl)c[nH]c(=O)c2c1)C(=O)N1CCOC[C@H]1C(=O)O` [Example 112, (S)-4-((R)-2-((4-(2-chloro-4-fluorophenyl)-1-oxo-1,2-dihydroisoquinolin-7-yl)oxy)propanoyl)morpholine-3-carboxylic acid], under setting [1], inhibition was half-maximal at 4000 nM (IC50).

In turn, `Cc1cc(F)ccc1-c1cc(=O)[nH]c2cc(OC(C)C)ccc12` [Example Q3, 4-(4-fluoro-2-methylphenyl)-7-isopropoxy-1H-quinolin-2-one] yielded a half-inhibitory concentration (IC50) under setting [2] of 4000 nM. For the molecule `CNC(=O)[C@@H](C)Oc1ccc2c(-c3ccccc3C)c[nH]c(=O)c2c1` [Example 20, (R)—N-methyl-2-((1-oxo-4-(o-tolyl)-1,2-dihydroisoquinolin-7-yl)oxy)propanamide], the midpoint of inhibition under setting [1], the IC50, lay at 1000 nM. On to `Cc1ccc(-c2c[nH]c(=O)c3cc(OCC#N)ccc23)c(Cl)c1` [Example 89, 2-((4-(2-chloro-4-methylphenyl)-1-oxo-1,2-dihydroisoquinolin-7-yl)oxy)acetonitrile], for which the 50% inhibitory concentration (IC50) under setting [1] was found to be 300 nM. In the case of `C[C@@H](Oc1ccc2c(-c3ccc(F)cc3Cl)c[nH]c(=O)c2c1)C(=O)N1CCO[C@H](CO)C1` [Example 106, 4-(2-chloro-4-fluorophenyl)-7-(((R)-1-((S)-2-(hydroxymethyl)morpholino)-1-oxopropan-2-yl)oxy)isoquinolin-1(2H)-one], the half-inhibitory concentration (IC50) under setting [1] stood at 600 nM.

Under setting [1], `CC(C#N)Oc1ccc2c(-c3ccccc3Cl)c[nH]c(=O)c2c1` (single isomer, unassigned) [Example 58, 2-((4-(2-chlorophenyl)-1-oxo-1,2-dihydroisoquinolin-7-yl)oxy)propanenitrile] showed an IC50 of 2000 nM.
